Data reported in US20060013858A1, “Fludrocortisone treatment for hearing loss” (priority 2002, published 2006).
Several values for one entry are separate records, joined by “and”; a condition that tells them apart may be missing. Identical values can stand only once. Like-named read-outs stand apart in the source and are kept apart here.

What was measured:
[1] = test system: MRL/MpJ-Fas^lPr autoimmune mice; experiment: Blood hematocrit as index of systemic autoimmune disease; format: in vivo, mouse; conditions: for change in hematocrit: pre- vs posttreatment, any dose
From the text: (§1) This example describes methods used to measure the severity of systemic autoimmune disease, as described in Trune et al. (Hear. Res. 38:57-66, 1989). Briefly, baseline and posttreatment serum samples are taken for measurement of hematocrit, antinuclear antibodies, and serum immune complexes as indices of systemic autoimmune disease progression. […] For those mice still alive at the time of sacrifice, some spleens were weighed to assess splenomegaly, another index of systemic autoimmune disease progression.
(§2) It may not be possible to perform an extensive statistical analysis on serum measures if there are high mortality rates, if the differential mortality rates between groups lead to large differences in sample sizes, and an inability to get sufficient blood from some mice. In this case, pretreatment-posttreatment statistical comparisons (paired t-tests) are conducted only for those mice that survive the treatment period.

[2] = test system: MRL/MpJ-Fas^lPr autoimmune mice; experiment: Drug combination therapy: survival; format: in vivo, mouse; conditions: for % alive: 2 months
[3] = test system: MRL/MpJ-Fas^lPr autoimmune mice; conditions: Trune et al., Laryngoscope 2000; cited from earlier work
[4] = test system: MRL/MpJ-Fas^lPr autoimmune mice; experiment: Cochlear histology of the stria vascularis; format: in vivo, mouse; conditions: for stria vascularis appearance: after steroid treatment, qualitative
Experimental: Following decalcification in EDTA, the ears were cryostat sectioned for qualitative morphologic evaluations of the stria vascularis. The procedure of Whitlon et al. (Brain Res. Protocols, 6:159-66, 2001) can be used to improve OCT compound infiltration and tissue preservation. The cochleas were cryostat sectioned for immunocytochemical analyses. Quantitative morphology was performed on glycol methacrylate (GMA) embedded tissue as follows. […] Following decalcification in EDTA, the ears were embedded in glycol methacrylate for light microscopic examination. Every fourth section (5 μm thickness) wass serially mounted on glass slides and stained for quantitative and qualitative analyses. Cochleas were scanned for pathological changes and treatment effects. Of particular interest is the stria vascularis, lateral wall, hair cells, spiral ganglion neurons, and all blood vessels in modiolar and sensory regions. The area occupied by stria vascularis, blood vessels, non-blood vessels, and intercellular edema was measured for statistical analysis. Alternatively, the following methods can be used to qualitatively determine stria vascularis and spiral ligament and integrity of endothelial cell tight junctions, intercellular edema. […] Thin sections are observed on a Philips CM100. Qualitative observations are made of the cochlear tissue areas above and any other regions determined in the immunohistochemistry section to be responsive to steroid therapy. Stria vascularis is examined for integrity of endothelial cell tight junctions, and intercellular edema, to determine the treatment effects on known changes that occur in autoimmune disease.

[5] = test system: MRL/MpJ-Fas^lPr autoimmune mice; experiment: Auditory brainstem response (ABR) audiometry after oral steroid treatment; format: in vivo, mouse; conditions: for % of ears that are same (unchanged) / % of ears that are worse / % of ears that are better: two months following treatment, dose not stated; for % of ears that are same (unchanged): combined ABR thresholds +/-15 dB; for % of ears that are worse: combined ABR thresholds higher by 20 dB or more; for % of ears that are better: combined ABR thresholds lower by 20 dB or more
From the text: The MRL/MpJ-Fas^lPr autoimmune mouse is an established model of autoimmune sensorineural hearing loss (Ruckenstein et al., Acta OtolaryngoL 113:160-5, 1993; Trune et al. Hear. Res. 105:57-64, 1997). These mice carry a Fas gene defect that prevents apoptosis of self-recognizing T lymphocytes, leading to T cell proliferation and polyclonal B cell activation (Watanabe-Fukunaga et al. Nature 356:314-7, 1992). Spontaneous systemic autoimmune disease develops in MRL/MpJ-Fas^lPr autoimmune mice, resulting in increased serum immune complexes, anti-DNA antibodies, lymphadenopathy, elevated auditory thresholds, lowered hematocrits due to anti-erythrocyte autoantibodies, splenomegaly, increased body mass and pathological changes in the stria vascularis (Id. and Ruckenstein et al. Otolaryngol. Head Neck Surg. 121:452-6, 1999; Trune et al. Hear. Res. 155:9-20, 2001).
Mice (Jackson Laboratories, Bar Harbor, Me.) were obtained at two months of age. Onset of systemic autoimmune disease occurs at 3-4 months of age and cochlear thresholds rise shortly thereafter (Trune et al., Otolaryngol. Head Neck Surg. 117:504-8, 1997). Mice were tested with auditory brainstem response (ABR) audiometry (see Example 2) at 2-3 months of age to establish pretreatment baseline auditory thresholds.
(§3) Animals were anesthetized (kcetamine+xylazine) and the individual ears of each mouse stimulated with a closed-tube sound delivery system sealed into the ear canal. The ABR to tone-burst stimuli at 4, 8, 16, and 32 kHz was recorded and thresholds obtained for each ear. Absolute thresholds and threshold changes over the treatment period for each ear were calculated to determine if treatments impact cochlear function. For each ear, pretreatment and posttreatment thresholds at the four frequencies were compared statistically to establish any change over the treatment period.
(§4) The shifts for each frequency within an ear were added to derive its total change in threshold as described previously (Trune et al., Hear. Res. 137:160-6, 1999; Trune et al., Hear. Res. 137:167-73, 1999). If the ear's combined posttreatment thresholds was lower by 20 dB or more, the ear was considered to be improved (average of 5 dB per frequency). The ear is considered unchanged if the combined thresholds are +/−15 dB and worse if the combined thresholds were higher by 20 dB or more.

[6] = test system: MRL/MpJ-Fas^lPr autoimmune mice; experiment: Stria blood vessel size (quantitative morphology, plastic embedding); format: in vivo, mouse; conditions: Chi-squared of vessels above and below normal median
From the text: To increase histological detail in order to quantitatively measure steroid responsive hearing loss (stria blood vessel sizes), plastic embedding methods were used as described herein. Age-matched BALB/c controls also were processed to provide details of non-autoimmune stria. Camera lucida drawings were made of the stria, its blood vessels, and the edematous spaces. Digitized measurements were made of these various features.

[7] = test system: MRL/MpJ-Fas^lPr autoimmune mice; experiment: Spleen weight (splenomegaly); format: in vivo, mouse; conditions: at sacrifice; prednisolone 5 mg treatment; aldosterone dose not stated
From the text: as §1
Increased spleen size also is a manifestation of autoimmune disease, increasing with progression of systemic T and B cell proliferation. The spleen is approximately 75-100 mg in normal mice.

[8] = test system: MRL/MpJ-Fas^lPr autoimmune mice; experiment: Anti-nuclear antibody (ANA) levels by immunofluorescence; format: in vivo, mouse; conditions: pre- vs posttreatment
From the text: as §1
Antibodies against nuclear material are another manifestation of autoimmune disease. Anti-nuclear antibody (ANA) levels are determined by level of immunofluorescence (1+ to 4+) with normal as 1+as previously described (Trune et al., Hear. Res. 38:57-66, 1989).

[9] = test system: MRL/MpJ-Fas^lPr autoimmune mice; experiment: Serum immune complexes as index of systemic autoimmune disease; format: in vivo, mouse; conditions: for effect on serum immune complexes: pre- vs posttreatment
From the text: as §1, §2

[10] = test system: MRL/MpJ-Fas^lPr autoimmune mice; conditions: mouse, in vivo
From the text: (§5) Serum samples were collected for baseline levels of hematocrit, serum immune complexes, and antinuclear antibodies, all hallmarks of systemic autoimmune disease. […] At the end of treatments, ABR audiometry and serum collection were repeated at 2, 3, and 4 months of treatment to determine steroid effects on cochlear function and systemic autoimmunity.
(§6) Oral delivery in mice provides a constant source of steroid, parallels oral administration in humans, and avoids the trauma of daily injections.
(§7) Mice receiving aldosterone were administered a daily oral dose of 3, 5, 15, or 30 μLg/kg/day of d-aldosterone (Sigma, St. Louis Mo.). Aldosterone drinking water was prepared by dissolving 50 μg of steroid in 50 μl of 100% ETOH, then diluting the required amount in the 500 ml of water in the drinking bottle to reach the final effective dose. The highest final ETOH concentration in a waterbottle was 0.018% (90 μl dose) and was considered negligible.
(§8) Mice receiving fludrocortisone were administered a daily oral dose of 3 μg/kg per day or 10 μg/kg per day. Fludrocortisone drinking water was prepared by dissolving 50 μg of fludrocortisone, 50 μl of 100% ETOH, then diluting the required amount in the 500 ml of water in the drinking bottle to reach the final effective dose. The final ETOH concentration in a water bottle was considered negligible.
(§9) The shift in thresholds between baseline and posttreatment times was analyzed for each ear with a paired t-test. […] A probability value less than 0.05 was considered significant in all tests. […] In addition, by summing the shifts at each frequency, any random fluctuations in thresholds at the different frequencies due to equipment or animal variation are mathematically removed.

[11] = test system: MRL/MpJ-Fas^lPr autoimmune mice; experiment: Drug combination therapy: ABR ear outcome; format: in vivo, mouse
Experimental: as §3, §4
Hearing loss was monitored monthly using the method described in Example 2.

[12] = test system: MRL/MpJ-Fas^lPr autoimmune mice; experiment: Survival and tolerance of steroid drinking water; conditions: for tolerance of steroid in the drinking water: dehydration, avoidance of drinking
From the text: as §5, §6, §7, §8, §9

[13] = test system: MRL/MpJ-Fas^lPr autoimmune mice; conditions: spironolactone study
Experimental: (§10) The spironolactone treatment group was given daily oral doses (5 mg/kg per day) of spironolactone (Sigma, St. Louis, Mo.). Spironolactone drinking water was prepared by dissolving 15 mg of spironolactone in 0.6-0.8 ml of 100% ethyl alcohol (ETOH) and diluting it into a 500 ml drinking-water bottle. Mice drink 3-5 ml of water daily, so the effective dose was approximately 0.15 mg per day. The final ETOH concentration was approximately 0.1% and considered negligible. The dose of spironolactone administered (5 mg/kg per day) was equivalent to the dose used clinically for the treatment of primary hyperaldosteronism and was likely insufficient to completely block the mineralocorticoid receptor.

[14] = test system: MRL/MpJ-Fas^lPr autoimmune mice
Experimental: as §10
The spironolactone+aldosterone treatment group was given 15 μg/kg per day of aldosterone in addition to the 5 mg/kg/day of spironolactone. Aldosterone drinking water was prepared by dissolving 50 μg of aldosterone in 50 μl of 100% ETOH and diluting it in the same 500 ml drinking-water bottle as the spironolactone. The final effective dose of aldosterone was approximately 0.5 μg per day. The final ETOH concentration of aldosterone was less than 0.009%. […]
ABR thresholds were recorded before and during treatment (2, 3, and 4 months) to measure the effect of steroids on hearing decline as described above in Example 2.
Ears also were analyzed independently across all frequencies. […]

[15] = Aldosterone 10 μg/kg/day, 2 months of treatment

Compound: C[C@]12CCC(=O)C=C1CC[C@@H]1[C@@H]2[C@@H](O)C[C@]2(C=O)[C@@H](C(=O)CO)CC[C@@H]12 [Aldosterone, d-aldosterone]
- change in hematocrit [1]: did not cause any significant change
- Alive at 2 months of Tx (mice) ([2]; Aldosterone 10 μg/kg/day): 7
- % alive ([2]; Aldosterone 10 μg/kg/day): 87.5%
- reversing or stabilizing autoimmune related hearing loss [3]: just as effective as prednisolone
- stria vascularis appearance [4]: restored the stria to almost normal appearance
- stria appearance ([4]; aldosterone 15 and 30 μg treatment groups): virtually normal in appearance
- stria epithelia appearance ([4]; lowest aldosterone dose): some edema and large vessels
- overall ABR threshold changes vs pretreatment baselines ([5]; two month treatment period): prevent significant overall threshold changes
- % of ears that are same (unchanged) [5]: 27%
- % of ears that are worse [5]: 69%
- % of ears that are better [5]: 4%
- thresholds / cochlear function relative to water controls ([5]; two months of treatment, Chi-squared): significantly better thresholds than controls
- stria blood vessel size relative to normal BALB/c median (35.3 μm^2) [6]: the same size as normal mice
- average spleen weight [7]: 399 mg
- impact on continuing elevation of ANA levels [8]: did not have a significant impact
- posttreatment serum immune complex levels ([9]; higher dose aldosterone, four surviving mice): 53,000 μg/ml
- serum immune complex levels in individual mice ([9]; higher dose aldosterone, two of the four surviving mice): 157,000 μg/ml and 45,000 μg/ml
- effect on serum immune complexes [9]: did not show any significant depression
- tolerance of steroid in the drinking water [10]: no adverse affects
- # Better (ears) [11, 15]: 0
- # Worse (ears) [11, 15]: 13
- # no change (ears) [11, 15]: 1
- (%) Worse (ears) [11, 15]: (93%)
- (%) no change (ears) [11, 15]: 7%
- prevention of hearing loss / decrease of rate of hearing loss ([11]; prednisolone alone at 1 mg/kg/day, aldosterone alone at 3 μg/kg/day): not prevented

Compound: C[C@]12CCC(=O)C=C1CC[C@H]1[C@@H]3CC[C@](O)(C(=O)CO)[C@@]3(C)C[C@H](O)[C@@]12F [Fludrocortisone]
- % of ears that are same (unchanged) [5]: 55% and 54.5%
- % of ears that are worse [5]: 34%
- % of ears that are better [5]: 12% and 11.5%
- tolerance of steroid in the drinking water [12]: similarly tolerate

Compound: CC(=O)S[C@@H]1CC2=CC(=O)CC[C@]2(C)[C@H]2CC[C@@]3(C)[C@@H](CC[C@@]34CCC(=O)O4)[C@H]12 [Spironolactone]
- systemic immune disease (immune complexes, hematocrits, body weights) [13]: normal progression of systemic disease
- hearing patterns compared to water controls ([14]; four months of treatment): no difference from controls
- hearing thresholds compared to water controls ([14]; three months of treatment): no different from untreated mice

Compound: prednisolone sodium phosphate
- hematocrits ([1]; higher dose prednisolone): elevated hematocrits beyond the normal range
- average hematocrits ([1]; lower prednisolone dose): in the normal range
- change in hematocrit [1]: elevated hematocrits
- Alive at 2 months of Tx (mice) ([2]; Prednisolone 3 mg/kg/day): 3
- % alive ([2]; Prednisolone 3 mg/kg/day): 42.9%
- stria vascularis appearance [4]: proper epithelium thickness, although dilated vessels still were seen
- systemic immune disease (immune complexes, hematocrits, body weights) [13]: all of the normal immune suppression effects
- average spleen weight [7]: 45 mg
- impact on continuing elevation of ANA levels [8]: did not have a significant impact
- serum immune complex levels after treatment ([9]; higher prednisolone dose, dropped from 3,920 μg/ml): approximately 450 μg/ml
- effect on serum immune complexes [9]: lowered serum immune complexes in a dose dependent manner
- serum immune complexes after treatment ([9]; prednisolone 5 mg dose, reduced from 4,570 μg/ml): 1,092 μg/ml
- tolerance of steroid in the drinking water [12]: no adverse affects
- survival ([12]; end of two months of treatment): 60-65%
